The text below walks through data of ChEMBL document CHEMBL1201862, “PubChem BioAssay data set” (2004).

What all share (assay): NCI-60 cell line screen, 48 h
In assay [1] the test system is OVCAR-5.
The test system of assay [2] is SK-MEL-2.
The subject of assay [3] is A549.
Assay [4] relates to MOLT-4.
Assay [5] has as its system SK-MEL-28.
Assay [6] deals with HOP-92.
Assay [7] relates to KM12.
For assay [8], the system named is UO-31.
Assay [9] has as its system K562.
Assay [10] deals with RXF 393.
The subject of assay [11] is SF-268.
The subject of assay [12] is SK-OV-3.
The subject of assay [13] is HT-29.
The test system of assay [14] is A498.
The test system of assay [15] is OVCAR-4.

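Protocol summary: plate cells (96-well), add compound at 5 concentrations, incubate 48 h, interpolate endpoints linearly. At the GI50, growth is halved.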 The source made the active and inactive calls. Rule as the data show it: active = GI50 up to about 1.1 µM and inactive = higher. Bounds are passed on as bounds.

Turning to `COc1ccc(N(C)Sc2ccccc2)cc1`, the GI50 is > 100 µM (inactive) in assay [1]; 65.5 µM (inactive) in assay [2]; 39.4 µM (inactive) in assay [3]; 13.1 µM (inactive) in [4]; 55.2 µM (inactive) in [5]; 79.8 µM (inactive) in [6]. In addition, the GI50 in assay [7] is 56.6 µM (inactive); in [8], 34.8 µM (inactive); in assay [9], 41.4 µM (inactive); in assay [10] it was 19.9 µM (inactive); in [11], 27.4 µM (inactive); in [12] it was > 100 µM (inactive).

Turning to `O=C1/C(=C/c2ccc3c(c2)OCO3)SC2C=Nc3ccccc3N12` (stereo unspecified), the GI50 in [1], in [2], in assay [3], in [4], in assay [13] and in assay [5] was > 100 µM (inactive) each time. In addition, the GI50 in [6], in assay [14], in assay [7], in assay [8], in assay [10] and in [11] was > 100 µM (inactive) each time. In addition, the GI50 in assay [15] is 63.4 µM (inactive).

Take `CN(C)NC1=C([N+](=O)[O-])C=NN(c2ccccc2)C1`: the GI50 in assay [1] was 1.67 µM (inactive); in [2], 1.71 µM (inactive); in assay [3], 2.1 µM (inactive); in assay [4], 2.09 µM (inactive); in assay [13] it was 1.95 µM (inactive); in assay [5], 1.81 µM (inactive). In addition, the GI50 in assay [6] was 2.02 µM (inactive); in [14] it was 20.9 µM (inactive); in assay [7], 2.52 µM (inactive); in assay [8], 1.79 µM (inactive); in assay [9], 2.44 µM (inactive); in [10] it was 1.93 µM (inactive). Besides, the GI50 is 1.85 µM (inactive) in assay [11], 1.97 µM (inactive) in assay [12] and 1.66 µM (inactive) in assay [15].

On to `CC1(c2ccccc2)CC12C(=O)NC(=O)NC2=O` (stereo unspecified), for which the GI50 in assay [1], in assay [2], in assay [3], in assay [4], in [13] and in assay [5] was > 100 µM (inactive) in each case. Moreover, the GI50 in [6], in assay [7], in assay [8], in assay [9], in assay [11] and in [12] was > 100 µM (inactive) in each case. For the same compound, in [15], the GI50 was > 100 µM (inactive).

For `COCOCCCCCO[Si](C)(C)C(C)(C)C`, the GI50 in [1] was 16.9 µM (inactive); in assay [2], 16 µM (inactive); in [3], 19.5 µM (inactive); in [4] it was 16.1 µM (inactive); in assay [13], 14.4 µM (inactive); in assay [5], 35.1 µM (inactive). The GI50 in assay [6] is 17.7 µM (inactive); in [14], 29.4 µM (inactive); in assay [7] it was 23.2 µM (inactive); in assay [8], 20.5 µM (inactive); in assay [9], 26.4 µM (inactive); in [10], 16.6 µM (inactive). Further, the GI50 in assay [11] is 5.19 µM (inactive); in assay [12], 40.6 µM (inactive).

In the case of `COc1ccc(C2=C[C@]3(O)CCCN3C[C@@H]2c2ccc(OC)c(OC)c2)cc1`, the GI50 in assay [1], in assay [2], in assay [3], in [4], in assay [13] and in assay [5] was < 0.0001 µM (active) throughout. Moreover, the GI50 in assay [6] is < 0.0001 µM (active); in assay [14] it was < 0.0001 µM (active); in assay [7] it was < 0.0001 µM (active); in [8], < 0.0001 µM (active); in assay [9], < 0.0001 µM (active); in assay [10], > 0.01 µM (active). Further, the GI50 in assay [11] was < 0.0001 µM (active); in assay [12], < 0.0001 µM (active); in [15], > 0.01 µM (active).

Consider `COc1ccc(OC)c(NC(=O)CCC/C(CC(=O)c2ccc(O)c(OC)c2)=N\NC(=O)C[N+](C)(C)C)c1`, for which the GI50 in assay [1], in [2], in [3], in assay [4], in [13] and in assay [5] was > 100 µM (inactive) in each case. For the same compound, the GI50 in [6], in assay [14], in [7], in [8], in assay [9] and in assay [11] was > 100 µM (inactive) throughout. In addition, the GI50 in assay [12] and in assay [15] was > 100 µM (inactive) in each case.

For the compound `O=C(c1ccc(Cl)cc1)c1ccc(OCCCOc2ccc(C(=O)c3ccc(Cl)cc3)cc2)cc1`, the GI50 in [1], in [2], in assay [3], in assay [4], in assay [13] and in [5] was > 100 µM (inactive) in each case. Further, the GI50 is 78.9 µM (inactive) in assay [6]; > 100 µM (inactive) in [7]; > 100 µM (inactive) in assay [9]; 88.3 µM (inactive) in assay [10]; > 100 µM (inactive) in [11]; > 100 µM (inactive) in [12]. Further, in assay [15], the GI50 was > 100 µM (inactive).

Take `CC1CC(C)C(=O)C(C(=O)CC2CC(=O)NC2=O)C1` (stereo unspecified): the GI50 in assay [1], in assay [3], in assay [13], in assay [5], in [6] and in assay [14] was > 100 µM (inactive) each time. Also, the GI50 in assay [7], in assay [8], in [9], in [10], in assay [11] and in assay [12] was > 100 µM (inactive) each time. Moreover, the GI50 in assay [15] is > 100 µM (inactive).

`Cc1cc(NS(=O)(=O)c2ccc(Nc3c4ccccc4nc4c(C(=O)Nc5ccc(S(=O)(=O)N=C(N)N)cc5)ccc(Cl)c34)cc2)no1`: the GI50 in assay [1] was > 100 µM (inactive); in [3] it was > 100 µM (inactive); in assay [4] it was 24.7 µM (inactive); in assay [13] it was 49.7 µM (inactive); in assay [5] it was 54.5 µM (inactive); in assay [14], 44.6 µM (inactive). Further, the GI50 in assay [7] is 87.9 µM (inactive); in assay [8] it was 34.5 µM (inactive); in assay [9], 22.1 µM (inactive); in [10], 29 µM (inactive); in [11] it was 23.8 µM (inactive); in [12] it was 31.7 µM (inactive). Moreover, the GI50 in [15] is 28.5 µM (inactive).

Regarding `O=C(O)CSc1nnc(-c2ccco2)[nH]1`, the GI50 in assay [1], in [2], in assay [3], in [4], in assay [13] and in assay [5] was > 100 µM (inactive) each time. In addition, the GI50 in assay [6], in [14], in assay [7], in assay [8], in assay [9] and in assay [10] was > 100 µM (inactive) in each case. For the same compound, the GI50 in assay [12] and in assay [15] was > 100 µM (inactive) each time.

On to `COc1ccc(C(=O)NCCC2=CCCCC2)cc1`, for which the GI50 in assay [1] is > 100 µM (inactive); in assay [2], > 100 µM (inactive); in assay [3] it was > 100 µM (inactive); in assay [13], > 100 µM (inactive); in assay [5], > 100 µM (inactive); in [6] it was 78.5 µM (inactive). In addition, the GI50 was 85.7 µM (inactive) in assay [14]; > 100 µM (inactive) in [7]; > 100 µM (inactive) in assay [9]; > 100 µM (inactive) in assay [10]; > 100 µM (inactive) in [11]; > 100 µM (inactive) in [15].

For `CCn1c(CSc2nc(-c3ccccc3)c(-c3ccccc3)[nH]2)n[nH]c1=S`, the GI50 in assay [1], in assay [2], in assay [3], in assay [4], in assay [13] and in assay [5] was > 100 µM (inactive) in each case. The GI50 is > 100 µM (inactive) in assay [6]; > 100 µM (inactive) in assay [14]; 51.4 µM (inactive) in assay [7]; > 100 µM (inactive) in assay [8]; > 100 µM (inactive) in assay [11]; > 100 µM (inactive) in [12]. For the same compound, the GI50 in assay [15] is > 100 µM (inactive).

Consider `CCn1cnc2c(=S)nc(N)[nH]c21`, for which the GI50 in [3], in assay [4], in [13], in assay [5], in [7] and in assay [8] was > 100 µM (inactive) throughout. Moreover, the GI50 in assay [9], in assay [10], in assay [11] and in [12] was > 100 µM (inactive) throughout.

As to `C#Cc1cccc(N2C(=O)CC(=P(c3ccccc3)(c3ccccc3)c3ccccc3)C2=O)c1`, the GI50 is 57 µM (inactive) in assay [1]; 84.7 µM (inactive) in assay [2]; 70 µM (inactive) in assay [3]; 51.8 µM (inactive) in assay [4]; 39.6 µM (inactive) in assay [13]; 81.3 µM (inactive) in assay [5]. Moreover, the GI50 in assay [14] was > 100 µM (inactive); in assay [8], > 100 µM (inactive); in assay [9], 35.4 µM (inactive); in [11], 62.1 µM (inactive); in [12] it was > 100 µM (inactive); in assay [15], 69.2 µM (inactive).
